Reference: the NIST ThermoML archive (doi:10.1021/acs.jced.6b00951)

Conditions: 100.3 kPa, Liquid; for viscosity: Capillary tube (Ostwald / Ubbelohde) method; for mass density: Vibrating tube method

O [water]
Conditions | mass density [kg/m3] | viscosity [mPa·s]
288.15 K | – | 1.139
293.15 K | – | 1.002
298.15 K | – | 0.8897
303.15 K | – | 0.7988
308.15 K | – | 0.7184
313.15 K | – | 0.6525
318.15 K | – | 0.596
323.15 K | 988.04 | 0.547
328.15 K | 985.69 | 0.5043
